Data set [1] can be described thus: Apparent permeability of the compound in dog MDCKII-MDR1 cells measured after 1 hr. It is filed as ADME, cell-based, Canis lupus familiaris. To be noted: mdck-mdr1, 1 h.
The target in data set [2] is Protein cereblon/Eukaryotic peptide chain release factor GTP-binding subunit ERF3A (Homo sapiens, UniProt P15170+Q96SW2). As to the kind of experiment: PROTAC activity at human CRBN/HiBiT-fused GSPT1 transfected in HEK293T cells assessed as induction of GSPT1 degradation measured after 4 hrs by Nano-Glo HiBiT lytic assay. It is filed as cell-based. For orientation: With HiBiT, luminescence reflects the tagged protein that the partner subunit can reach.

Data set [3] deals with Protein cereblon/DNA damage-binding protein 1 (Homo sapiens, UniProt Q96SW2).
Data set [4] deals with MV4-11. As to the kind of experiment: Antiproliferative activity against human MV4-11 cells assessed as reduction in cell viability measured after 3 days by CellTiter-Glo assay. The class given is functional, cell-based. Conditions: for EC50: MV4-11, 72 h. (In general: ATP-based viability assays read luminescence as a measure of living cells.)
The nature of data set [5]: Aqueous solubility of the compound incubated for 18 hrs at pH 7.4 by UV spectrum based analysis. The class given is physicochemical.
Data set [6] is described as follows: Cytotoxicity against human PBMC assessed as reduction in cell viability.
The test system of data set [7] is MV4-11. As to the kind of experiment: Antiproliferative activity against human MV4-11 cells transfected with FLAG-tagged GSPT1 G575N mutant assessed as reduction in cell viability measured after 3 days by CellTiter-Glo assay. Conditions: time 3.0 day. It is filed as functional, cell-based.
The subject of data set [8] is MV4-11. As to the kind of experiment: PROTAC activity at CRBN/GSPT2 in human MV4-11 cells assessed as induction of GSPT2 degradation at 1 uM measured after 4 hrs by tandem mass tag mass spectrometry analysis. The class given is cell-based.
Data set [9] can be described thus: Half life in human liver microsomes measured upto 240 mins in presence of NADPH regenerating system by UHPLC-MS/MS analysis. The class given is ADME, Microsome. Conditions: 4 h. In general terms: Liver microsomes are a subcellular fraction often used to study metabolism.
The subject of data set [10] is MV4-11. Put plainly: Antiproliferative activity against human MV4-11 cells assessed as reduction in cell viability measured after 3 days in presence of CRBN ligand, lenalidomide by CellTiter-Glo assay. The class given is functional, cell-based. Conditions: time 3.0 day.
Data set [11] deals with MV4-11. Put plainly: Induction of apoptosis in human MV4-11 cells assessed as caspase activation at 10 to 100 nM measured after 8 hrs by luminescent Caspase-Glo assay. It is filed as functional, cell-based. Conditions: dose 10-100 nM.
The target in data set [12] is T1, Protein cereblon/Eukaryotic peptide chain release factor GTP-binding subunit ERF3A (Homo sapiens, UniProt Q96SW2+P15170). Conditions: MV4-11, dose 100.0 nM, time 4.0 hrs.
Target sequence in this assay (P15170 whole entry, looked up): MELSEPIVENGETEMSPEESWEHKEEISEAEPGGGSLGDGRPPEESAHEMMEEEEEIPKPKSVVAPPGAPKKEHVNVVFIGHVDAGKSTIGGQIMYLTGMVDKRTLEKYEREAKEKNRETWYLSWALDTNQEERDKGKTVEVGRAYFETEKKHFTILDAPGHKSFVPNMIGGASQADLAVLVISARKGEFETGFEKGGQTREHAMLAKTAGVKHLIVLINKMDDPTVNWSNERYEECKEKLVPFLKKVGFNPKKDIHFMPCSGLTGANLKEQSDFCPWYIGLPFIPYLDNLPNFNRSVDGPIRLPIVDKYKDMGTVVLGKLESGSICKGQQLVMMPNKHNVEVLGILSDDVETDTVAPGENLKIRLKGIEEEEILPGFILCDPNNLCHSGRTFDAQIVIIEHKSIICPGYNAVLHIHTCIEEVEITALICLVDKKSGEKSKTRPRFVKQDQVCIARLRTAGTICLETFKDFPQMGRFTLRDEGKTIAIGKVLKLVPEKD
Target sequence in this assay (Q96SW2 whole entry, looked up): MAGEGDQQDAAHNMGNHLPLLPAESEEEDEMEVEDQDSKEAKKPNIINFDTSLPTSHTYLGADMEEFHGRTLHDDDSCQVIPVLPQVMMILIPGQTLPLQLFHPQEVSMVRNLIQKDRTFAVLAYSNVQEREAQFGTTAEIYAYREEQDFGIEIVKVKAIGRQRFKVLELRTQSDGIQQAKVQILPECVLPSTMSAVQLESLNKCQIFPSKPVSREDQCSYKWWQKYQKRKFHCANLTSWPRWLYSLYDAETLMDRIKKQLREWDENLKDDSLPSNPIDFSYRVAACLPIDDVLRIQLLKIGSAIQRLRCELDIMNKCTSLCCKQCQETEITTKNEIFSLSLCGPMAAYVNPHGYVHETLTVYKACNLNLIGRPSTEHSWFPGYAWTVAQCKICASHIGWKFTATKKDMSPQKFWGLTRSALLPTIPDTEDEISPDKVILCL
The target of data set [13] is T1, Protein cereblon/Eukaryotic peptide chain release factor GTP-binding subunit ERF3A. To be noted: mhhcall4.
Target sequence in this assay (Q96SW2 whole entry): as the sequence (Q96SW2 whole entry, looked up) above
Target sequence in this assay (P15170 whole entry): as the sequence (P15170 whole entry, looked up) above
Data set [14] deals with MV4-11. Put plainly: Antiproliferative activity against CRBN knock-out human MV4-11 cells assessed as reduction in cell viability measured after 3 days by CellTiter-Glo assay. It is filed as functional, cell-based. To be noted: time 3.0 day.
The nature of data set [15]: (§1) Antiproliferative activity against human MB004 cells harboring TP53 mutation at codon 274 GTT-TGT assessed as reduction in cell viability measured after 3 days by CellTiter-Glo assay. It is filed as functional, cell-based. To be noted: MB004, 72 h.
Data set [16] relates to MV4-11. It is filed as cell-based. To be noted: Homo sapiens, dose 1-10 µM, time 24.0 hrs.
For data set [17], the system named is MV4-11. As to the kind of experiment: PROTAC activity at CRBN/FLAG-tagged GSPT1 G575N mutant transfected in human MV4-11 cells assessed as induction of GSPT1 mutant degradation at 1 to 10 uM measured after 24 hrs by immunoblot analysis. The class given is cell-based. To be noted: dose 1-10 µM.
Data set [18] can be described thus: (§2) Antiproliferative activity against human MHHCALL4 cells harboring CRLF2-rearranged JAK2 mutation assessed as reduction in cell viability measured after 3 days by CellTiter-Glo assay. The class given is functional, cell-based. Conditions: MHHCALL4, 72 h.
The species entered for another data set is Homo sapiens. Put plainly: Induction of His-tagged CRBN/DDB1/biotin-tagged IKZF1 (unknown origin) ternary complex formation incubated for 90 mins by AlphaScreen assay.
Data set [19] has as its system MV4-11. Put plainly: PROTAC activity at CRBN/SERPINF1 in human MV4-11 cells assessed as induction of SERPINF1degradation at 1 uM measured after 4 hrs by tandem mass tag mass spectrometry analysis. It is filed as cell-based.
Data set [20] is described as follows: Protein binding in human plasma at 10 uM incubated for 4 hrs by UHPLC-MS/MS analysis. It is filed as ADME, cell-free.
A short description of data set [21]: Half life in CD-1 mouse liver microsomes measured upto 240 mins in presence of NADPH regenerating system by UHPLC-MS/MS analysis. It is filed as ADME, Microsome. To be noted: 4 h.
A short description of data set [22]: Protein binding in mouse plasma at 10 uM incubated for 4 hrs by UHPLC-MS/MS analysis. It is filed as ADME, cell-free.
A short description of data set [23]: (§3) Antiproliferative activity against human HD-MB03 cells assessed as reduction in cell viability measured after 3 days by CellTiter-Glo assay. To be noted: HD-MB03, 72 h. It is filed as functional, cell-based.
The target of data set [24] is T1, Protein cereblon/Eukaryotic peptide chain release factor GTP-binding subunit ERF3A. To be noted: MV4-11, dose 100.0 nM, time 24.0 hrs.
Target sequence in this assay (P15170 whole entry, looked up): as above
Target sequence in this assay (Q96SW2 whole entry, looked up): as the sequence (Q96SW2 whole entry, looked up) above
For data set [25], the system named is MV4-11. As to the kind of experiment: Induction of apoptosis in human MV4-11 cells assessed as caspase activation at 10 to 100 nM measured after 24 hrs by luminescent Caspase-Glo assay. The class given is functional, cell-based. To be noted: dose 10-100 nM.
The subject of another data set is MB004. The data set is described as §1. To be noted: time 3.0 day. It is filed as functional, cell-based.
A further data set deals with MHHCALL4. Described as §2. The class given is functional, cell-based. Conditions: time 3.0 day.
The next data set relates to HD-MB03. Described as §3. It is filed as functional, cell-based. Conditions: time 3.0 day.

Values after ≈ are worked out from the molar mass of the structure shown. Active and inactive are the calls of the source. No cut-off for these calls is given here.

Sequence of Protein cereblon/DNA damage-binding protein 1 (Q96SW2 whole entry): as the sequence (Q96SW2 whole entry, looked up) above
Sequence of Protein cereblon/DNA damage-binding protein 1 (Q16531 whole entry, further chain): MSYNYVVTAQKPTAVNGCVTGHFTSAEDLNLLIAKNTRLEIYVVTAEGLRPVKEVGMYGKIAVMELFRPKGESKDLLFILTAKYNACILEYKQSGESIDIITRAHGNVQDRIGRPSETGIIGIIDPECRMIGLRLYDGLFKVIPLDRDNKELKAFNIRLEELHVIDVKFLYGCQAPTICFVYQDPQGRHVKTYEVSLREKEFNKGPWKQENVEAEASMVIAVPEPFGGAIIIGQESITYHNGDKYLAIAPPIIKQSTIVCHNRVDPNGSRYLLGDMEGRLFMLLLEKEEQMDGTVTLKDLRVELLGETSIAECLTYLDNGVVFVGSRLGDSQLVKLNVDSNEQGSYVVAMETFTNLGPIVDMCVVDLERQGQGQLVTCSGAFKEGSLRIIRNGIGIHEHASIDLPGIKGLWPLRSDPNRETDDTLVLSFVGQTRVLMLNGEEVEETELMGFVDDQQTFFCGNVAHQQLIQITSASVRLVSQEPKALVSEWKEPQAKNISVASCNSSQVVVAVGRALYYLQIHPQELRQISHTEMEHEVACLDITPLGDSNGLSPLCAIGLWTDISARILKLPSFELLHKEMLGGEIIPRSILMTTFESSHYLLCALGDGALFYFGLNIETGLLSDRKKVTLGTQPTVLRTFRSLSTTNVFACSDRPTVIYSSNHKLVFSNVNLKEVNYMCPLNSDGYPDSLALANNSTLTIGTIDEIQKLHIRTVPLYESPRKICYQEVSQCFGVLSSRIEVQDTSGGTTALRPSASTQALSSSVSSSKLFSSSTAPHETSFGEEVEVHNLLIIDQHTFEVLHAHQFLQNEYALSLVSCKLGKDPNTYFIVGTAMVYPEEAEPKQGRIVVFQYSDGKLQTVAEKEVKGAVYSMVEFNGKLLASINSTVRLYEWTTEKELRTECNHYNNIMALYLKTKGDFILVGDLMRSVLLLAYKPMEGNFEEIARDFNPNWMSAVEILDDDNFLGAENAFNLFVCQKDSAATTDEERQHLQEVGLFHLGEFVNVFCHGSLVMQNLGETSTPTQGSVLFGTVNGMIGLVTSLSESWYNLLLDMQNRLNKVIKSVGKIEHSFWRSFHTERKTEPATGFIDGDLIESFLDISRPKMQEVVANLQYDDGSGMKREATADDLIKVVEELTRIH
Sequence of Protein cereblon/Eukaryotic peptide chain release factor GTP-binding subunit ERF3A (Homo sapiens, UniProt P15170+Q96SW2) (Q96SW2 whole entry, the tested form may be a part): as the sequence (Q96SW2 whole entry, looked up) above
Sequence of Protein cereblon/Eukaryotic peptide chain release factor GTP-binding subunit ERF3A (Homo sapiens, UniProt P15170+Q96SW2) (P15170 whole entry, the tested form may be a part): as the sequence (P15170 whole entry, looked up) above

Turning to `O=C1CCC(N2C(=O)c3ccc(NS(=O)(=O)c4ccccc4C(F)(F)F)cc3C2=O)C(=O)N1` (stereo not given), the Papp in data set [1] turned out to be 1.4 ×10⁻⁶ cm/s. In addition, the EC50 in [2] was found to be 52 nM; in the data set with MV4-11 [4] it was 89 nM. This molecule returned an IC50 in [3] of 337 nM. Further, in data set [5], the solubility at 18 h was found to be 66 µM (≈ 31.8 µg/mL).
On to `O=C1CCC(N2Cc3cc(CNC(=O)C(F)(F)c4ccc(Cl)cc4)ccc3C2=O)C(=O)N1` (stereo not given), for which the Papp in data set [1] was 4.9 ×10⁻⁶ cm/s. Further, in data set [6], the Activity result is “Toxic”. For the same molecule, the half-maximal effective concentration (EC50) with MV4-11 [4] was 62 nM. The same molecule came in with a solubility at 18 h in data set [5] of 77 µM (≈ 35.6 µg/mL).
Take `Cc1ccc(S(=O)(=O)Nc2ccc3c(c2)C(=O)N(C2CCC(=O)NC2=O)C3=O)cc1Cl` (stereo not given): the apparent permeability (Papp) in [1] was found to be 4.6 ×10⁻⁶ cm/s. The EC50 (in data set [2]; in the data set with MV4-11 [4]) was over 10000 nM throughout. In [3], the IC50 is 1 nM.
Consider `O=C1CCC(N2C(=O)c3ccc(NS(=O)(=O)c4ccccc4)cc3C2=O)C(=O)N1` (stereo not given), for which, in data set [1], the Papp worked out at 3.6 ×10⁻⁶ cm/s. Further, the EC50 (in data set [2]; in the data set with MV4-11 [4]) was over 10000 nM throughout. Besides, the IC50 in data set [3] worked out at 3 nM. In addition, the solubility at 18 h in data set [5] was found to be 71 µM (≈ 29.4 µg/mL).
As to `O=C1CCC(N2C(=O)c3ccc(NS(=O)(=O)c4ccccc4OC(F)(F)F)cc3C2=O)C(=O)N1` (stereo not given), the outcome in the data set on MV4-11 [7], with MV4-11 [10], in the data set with MV4-11 [14], in the data set on MV4-11 [16], in the data set with MV4-11 [17] and in the data set filed under Homo sapiens was inactive. In addition, the result with MV4-11 [8], with MV4-11 [11] and in the data set on MV4-11 [19] was Active. Besides, in data set [1], the Papp was 2.3 ×10⁻⁶ cm/s. The Activity result in [6] is recorded as “Toxic”. In addition, the t1/2 in data set [9] is 5.7 h; in data set [21], 4.7 h. Further, the Emax in data set [12] amounted to 90%. Further, in data set [13], the DC50 entry is reported as “Not Active”. The EC50 in [15] came to 336 nM; with MV4-11 [4] it was 1.5 nM; in [18] it was 0.4 nM; in [23], 3580 nM. In addition, the solubility at 18 h in [5] was found to be 67 µM (≈ 33.3 µg/mL). Further, the PPB in data set [20] worked out at 99.1%; in data set [22], 99.3%.
Turning to `Cc1c(Cl)cccc1S(=O)(=O)Nc1ccc2c(c1)C(=O)N(C1CCC(=O)NC1=O)C2=O` (stereo not given), the outcome with MV4-11 [7], with MV4-11 [10], in the data set with MV4-11 [14], in the data set with MV4-11 [16], in the data set on MV4-11 [17] and in the data set listed under Homo sapiens was inactive. In data set [1], the Papp turned out to be 3.6 ×10⁻⁶ cm/s. The Activity result in [6] is on record as “Toxic”. Besides, the EC50 in [15] was 1100 nM; in data set [18] it was 4.4 nM; in data set [23], over 8000 nM. The molecule further returned an Emax in data set [24] of 90%. The same molecule gave a solubility at 18 h in data set [5] of 64 µM (≈ 29.6 µg/mL). Further, the outcome in the data set with MV4-11 [25] was Active.
For `Cc1ccccc1S(=O)(=O)Nc1ccc2c(c1)C(=O)N(C1CCC(=O)NC1=O)C2=O` (stereo not given), in [1], the Papp was 6.8 ×10⁻⁶ cm/s. The concentration giving a half-maximal response (EC50) in [2] stood at 9320 nM; in the data set with MV4-11 [4], 7400 nM. The IC50 in [3] was 11 nM. Also, the solubility at 18 h in data set [5] is 84 µM (≈ 35.9 µg/mL).
As to `COc1ccccc1S(=O)(=O)Nc1ccc2c(c1)C(=O)N(C1CCC(=O)NC1=O)C2=O` (stereo not given), in data set [1], the Papp was 0.6 ×10⁻⁶ cm/s. Also, the EC50 (in data set [2]; with MV4-11 [4]) was over 10000 nM in each case. In [3], the IC50 amounted to 612 nM. For the same molecule, in data set [5], the solubility at 18 h amounted to 85 µM (≈ 37.7 µg/mL).
Consider `O=C1CCC(N2C(=O)c3ccc(NS(=O)(=O)c4ccc(OC(F)(F)F)cc4)cc3C2=O)C(=O)N1` (stereo not given), for which the Papp in [1] was determined as 1.1 ×10⁻⁶ cm/s. Further, the EC50 (in [2]; in the data set with MV4-11 [4]) was over 10000 nM throughout. The molecule also returned an IC50 in data set [3] of 9 nM. In [5], this molecule came in with a solubility at 18 h of 76 µM (≈ 37.8 µg/mL).
Consider `O=C1CCC(N2C(=O)c3ccc(NS(=O)(=O)c4cccc(Cl)c4)cc3C2=O)C(=O)N1` (stereo not given), for which, in data set [1], the Papp was 1.7 ×10⁻⁶ cm/s. Further, the EC50 (in data set [2]; in the data set with MV4-11 [4]) was over 10000 nM throughout. The same molecule had an IC50 in data set [3] of 23 nM. Further, in data set [5], the solubility at 18 h is 74 µM (≈ 33.1 µg/mL).
Take `O=C1CCC(N2C(=O)c3ccc(NS(=O)(=O)c4cccc(OC(F)(F)F)c4)cc3C2=O)C(=O)N1` (stereo not given): the Papp in data set [1] came out at 4 ×10⁻⁶ cm/s. Also, the concentration for a half-maximal effect (EC50) (in data set [2]; in the data set on MV4-11 [4]) was over 10000 nM in each case. The IC50 in [3] was determined as 10 nM. For the same molecule, the solubility at 18 h in data set [5] came out at 64 µM (≈ 31.8 µg/mL).
Take `Cc1ccc(NC(=O)NCc2ccc3c(c2)CN(C2CCC(=O)NC2=O)C3=O)cc1Cl` (stereo not given): the Activity entry in data set [6] was “Toxic”. Besides, the result with MB004, in the data set on MV4-11 [4] (time 3.0 day), with MHHCALL4 and in the data set with HD-MB03 was Active. In [3], this molecule yielded an IC50 of 18 nM.

By Papp is commonly meant a coefficient for how fast a substance crosses the barrier. A word on the EC50: it is the midpoint of the concentration-response curve. As a reminder, the IC50 is the concentration needed to halve the response being measured. Low readings indicate inhibition by little substance, high ones a need for much substance. Broadly, the solubility is the concentration that dissolves in the medium under given conditions. Higher therefore signals much dissolved substance. As usually defined, the Emax is the size of the effect at its maximum, as opposed to the concentration needed.

The values are drawn from ChEMBL document CHEMBL5036322 (J Med Chem, 2021).
